Test results: patent publication US12365643B2, “Phenoxy carboxylic acid compounds and medical uses thereof” (QINGDAO RISING BIOTECHNOLOGY CO., LTD, priority 2018, dated 2025)

Legend:
[1] = tested on: RAW264.7 mouse macrophages; experiment: Determination of NO generation induced by LPS; type: cell-based; conditions: 10 μM, 1 μg/mL LPS, 24 hours, RAW264.7 (FIG. 2)
Protocol: The results are expressed as the multiple of the NO content in the cell culture supernatant of the administration group (10 μM) as compared with that in the cell culture supernatant of the control group (DMSO group), in which compared with the control group, *P<0.05, **P<0.01, ***P<0.001.
NO is a reactive nitrogen species (RNS) and an important gas signal molecule. Macrophages could convert arginine into NO which participated in the body's inflammatory response. Therefore, determination of inhibitory activity of a drug on NO generation was one of the classic methods to evaluate drug's anti-inflammatory ability. RAW264.7 cells at exponential growth phase were inoculated into a 96-well plate at 1×10^4 cells/200 μL. well of medium. After adherence, the medium was discarded, and the cells were subjected to drug treatments. Normal group (serum-free medium), LPS model group (serum-free medium containing 1 μg/mL LPS), LPS+drug group (serum-free medium containing 1 μg/mL LPS, 10 μM gemfibrozil or the compound of the present application) were established, and 3 repeated wells were set for each group. After 24 hours incubation in incubator, cell supernatant of each well was collected and assay was performed according to the instructions of NO determination kit (Nanjing Jiancheng). The absorbance value of each well at wavelength of 540 nm was read and NO content was calculated.

NF-κB = NF-κB luciferase reporter gene transcriptional activity in SW480 cells; type: cell-based, human; conditions: 50 μM, 6 hours, SW480 stably transfected (FIG. 3)
Protocol: (§1) NF-κB was the most important inflammatory signal pathway. SW480 human colon cancer cells stably transfected with a luciferase reporter gene driven by NF-κB were used to determine the effects of the compound of the present application and the control drug gemfibrozil on NF-κB transcriptional activity, which comprised the following steps. • (1) Cells stably transfected with NF-κB Luc were cultivated to exponential growth, inoculated at a culture medium concentration of 1×10^5/[…] in a 24-well plate, and cultured for 24 hours, the medium was discarded, and the test compound or gemfibrozil formulated with serum-free medium at 50 μM were added to the 24-well plate and incubation was continued for 6 hours. After washing once with 200 μL of PBS, 100 μL of reporter gene cell lysis buffer was added, the cells were lysed on ice for 10 minutes, and the cell lysate was collected by pipetting. • (2) After centrifugation was performed at 8000 rpm and 4° C. for 10 min, the supernatant was pipetted for fluorescence assay. • (3) The measurement gap time of chemiluminescence analyzer was set to 2 s and the measurement time was set to 10 s. Automatic sample injection was adopted, 50 μL of luciferase assay reagent was added to each well. The reporter gene cell lysis buffer was used as a blank control. • (4) After centrifugation, the supernatant was taken, and the BCA method was used to determine the protein concentration so as to normalize the reporter gene results.

phosphorylated IRS-1 = experiment: Phosphorylated IRS-1 level by Western blotting in HepG2; type: cell-based, human; conditions: 1 μM, 24 hours, HepG2, Western blotting (FIG. 6C)
Text: (§2) Carnitine palmitoyltransferase (CPT1α) is a rate-limiting enzyme of fatty acid oxidation. When the body or tissues are lacking in energy, CPT1α catalyzes the entry of fatty acids into mitochondria for […], and at the same time, CPT1α is also involved in the regulation of fatty acid-induced insulin resistance and inflammation. Protein kinase B/glycogen synthase kinase 3β (AKT/GSK3β) signaling pathway and insulin receptor substrate 1 (IRS-1) are key signaling pathways that regulate glucose metabolism in response to insulin signal. Therefore, by determining the effects of compounds on the CPT1α protein level and the AKT, GSK3β and IRS-1 protein phosphorylation levels, it is possible to evaluate the regulatory effects of the compounds on glycolipid metabolism.
(§3) After human liver cancer cells HepG2 were incubated with the compound of the present application or the control drug at 1 μM for 24 hours, the CPT1α protein level and the AKT, GSK3β and IRS-1 phosphorylated protein levels in the cells were determined by Western blotting; after gray-scale scanning by using Image J15.0.1, normalization was performed by using β-tubulin protein level as internal control, and the quantitative analysis results were shown in FIG. 6.

PPARγ = PPARγ mRNA expression by real-time quantitative PCR in HepG2; type: cell-based, human; conditions: 1 μM, 6 hours, HepG2 (FIG. 5B)
Text: (§4) Peroxisome proliferation factor activated receptor (PPAR) is an important nuclear receptor that regulates glycolipid metabolism, including three subtypes: α, β/δ and γ. Peroxisome proliferator-activated receptor γ coactivator 1α (PGC-1α) is its auxiliary transcriptional activator. Acyl-CoA oxidase 1 (ACOX1) is the first rate-limiting enzyme for fatty acid β oxidation. Fatty acid binding protein 1 (FABP1) is highly expressed in liver, and can bind fatty acid, heme and other molecules to reduce their toxicity and damage. Up-regulating the expression level of these genes helps to improve the body's metabolism, and their agonists are an important class of anti-metabolic drugs. After the compound of the present application (1 μM) and the control drug gemfibrozil (1 μM) were incubated with human liver cancer cells HepG2 for 6 hours, real-time fluorescent quantitative PCR method was used to determine the relative expression of mRNA of related genes in the cells.
(§5) The company which synthesized the primers was Suzhou Hongxun Biotechnology Co., Ltd. Tranzol reagent (Tranzol total RNA extraction reagent, TransGen Biotech) was used to extract total RNA from tissues. 5× All-In-One RT MasterMix reverse transcription kit (Abcam, USA) and real-time quantitative PCR Master Mix (Aidlab Biotechnologies Co., Ltd) were used. Bio-Rad CFX Connect™ Real-Time PCR Detection System for qPCR was used, and 2^−ΔΔCT method was used for data analysis. The expression level of mRNA in the normal control group was set to 1, and the relative expression level of mRNA in the administration group was calculated, so as to confirm whether the active compound affected the PPAR pathway, thereby further regulating lipid metabolism.

[2] = tested on: antioxidant response element (ARE); experiment: ARE luciferase reporter gene activity in HepG2 cells; type: cell-based, human; conditions: 50 μM, HepG2 stably transfected (FIG. 4)
Protocol: as §1
In this experimental example, the luciferase activity in HepG2 human liver cancer cells stably transfected with a luciferase reporter gene driven by antioxidant response element (ARE) was determined to evaluate the regulatory effects of the compound of the present application and gemfibrozil on the transcriptional activity of transcription factor Nrf2 and the cellular oxidative stress response signals, in which the operation process of the reporter gene assay was the same as that of Experimental Example 2.2.

PGC1α = PGC1α mRNA expression by real-time quantitative PCR in HepG2; type: cell-based, human; conditions: 1 μM, 6 hours, HepG2 (FIG. 5C)
Text: as §4, §5

CPT1α = CPT1α protein level by Western blotting in HepG2; type: cell-based, human; conditions: 1 μM, 24 hours, HepG2, Western blotting (FIG. 6A)
Text: as §2, §3

db/db mice = experiment: Diabetes mellitus model (db/db mice); type: in vivo, mouse; conditions: intragastric once a day for 28 days, 50 mg/kg (pioglitazone 6 mg/kg)
Text: Animal model: C57BL/KsJ-leprdb/leprdb diabetic (db/db) mice were widely used as animal models of type 2 diabetes mellitus, in which spontaneous mutations of leptin receptor (Leptin receptor, Lepr) caused extreme obesity, polyphagia, diabetes and polyuria. In this experiment, db/db mice (purchased from the Department of Animals, Health Science Center of Peking University) were selected. In the experiment, 28 db/db mice were used, and the animals with blood glucose of about 7-13 mmol/L were selected. […] Intragastric administration was adopted with an administration volume of 10 ml/kg. […] The administration was performed once a day for 28 consecutive days. From the day of oral administration, the physiological changes of the animals were observed every day. Blood glucose was measured every 3 days (Roche blood glucose meter) and blood glucose difference (Δ) was calculated by the following formula: blood glucose difference (Δ)=the blood glucose of the day—the initial blood glucose (the initial blood glucose difference was zero). For mice in each experimental group, blood was collected, serum was separated, and liver was taken for wet-weight measurement after necropsy; liver tissue was taken and fixed for pathological examination, H.E. staining and oil red O staining (Wuhan Zishan Biotechnology Co., Ltd.) were performed, and mouse liver lesions were observed under light microscope; routine examination of blood was performed by Animal Laboratory Department, Health Science Center of Peking University to measure the following indexes: white blood cell count (WBC), red blood cell count (RBC), lymphocyte count (LY), platelet (PLT) and so on; biochemical laboratory examination of blood was performed by Laboratory Medicine, Third Hospital, Peking University to measure the following indexes: triglycerides (TG), total cholesterol (T-CHO), high-density lipoprotein cholesterol (HDL-C), low-density lipoprotein cholesterol (LDL-C) and so on.

For `Cc1cc(OCCC(C)(C)C(=O)O)c(C)cc1Br` [BJMU-111, 4-(4-bromo-2,5-dimethylphenoxy)-2,2-dimethylbutanoic acid], the “NO generation induced by LPS” value [1] was “could inhibit NO generation”.

In the case of `Cc1ccc(C)c(OCCCC(C)(C)C(=O)O)c1Cl` [BJMU-209, 5-(2-chloro-3,6-dimethylphenoxy)-2,2-dimethylpentanoic acid], the “activity of NF-κB reporter gene” value (NF-κB) is reported as “could significantly inhibit the activity of NF-κB reporter gene” and the “phosphorylation level of IRS-1” value (phosphorylated IRS-1) is reported as “significantly increased the phosphorylation level of IRS-1”.

For `Cc1cc(OCCCC(C)(C)C#N)c(C)cc1Br` [BJMU-309, 5-(4-bromo-2,5-dimethylphenoxy)-2,2-dimethylpentanenitrile], the “activity of NF-κB reporter gene” value (NF-κB) was “could significantly inhibit the activity of NF-κB reporter gene”, the “PPARγ mRNA expression” value (PPARγ) was “significantly induced PPARγ mRNA expression” and the “phosphorylation level of IRS-1” value (phosphorylated IRS-1) was “significantly increased the phosphorylation level of IRS-1”.

For `Cc1cc(OCCCC(C)(C)C(=O)O)c(C)c(C)c1Br` [BJMU-315, 5-(4-bromo-2,3,5-trimethylphenoxy)-2,2-dimethylpentanoic acid], the “activity of NF-κB reporter gene” value (NF-κB) was “could significantly inhibit the activity of NF-κB reporter gene”.

For `CCC(C)(CCCOc1cc(C)c(Br)cc1C)C(=O)O` (centres unmarked) [BJMU-401, 5-(4-bromo-2,5-dimethylphenoxy)-2-ethyl-2-methylpentanoic acid], the “ARE reporter gene activity” value [2] was “could significantly activate the ARE reporter gene activity” and the “NO generation induced by LPS” value [1] was “could inhibit NO generation”.

In the case of `Cc1cc(OCCCCC(C)(C)C(=O)O)c(C)cc1Br` [BJMU-403, 6-(4-bromo-2,5-dimethylphenoxy)-2,2-dimethylhexanoic acid], the “ARE reporter gene activity” value [2] is reported as “could significantly activate the ARE reporter gene activity” and the “NO generation induced by LPS” value [1] is reported as “could inhibit NO generation”.

With `COc1cc(Br)c(C)cc1OCCCC(C)(C)C(=O)O` [BJMU-412, 5-(4-bromo-2-methoxy-5-methylphenoxy)-2,2-dimethylpentanoic acid] the “ARE reporter gene activity” value [2] was “could significantly activate the ARE reporter gene activity”, the “PGC1α mRNA expression” value (PGC1α) was “significantly induced PGC1α mRNA expression” and the “phosphorylation level of IRS-1” value (phosphorylated IRS-1) was “significantly increased the phosphorylation level of IRS-1”.

In the case of `Cc1cc(Br)c(C)c(I)c1OCCCC(C)(C)C(=O)O` [BJMU-413, 5-(4-bromo-2-iodo-3,6-dimethylphenoxy)-2,2-dimethylpentanoic acid], the “NO generation induced by LPS” value [1] is reported as “could inhibit NO generation”.

In the case of `Cc1cc(Br)c(C)c(O)c1OCCCC(C)(C)C(=O)O` [BJMU-415, 5-(4-bromo-2-hydroxy-3,6-dimethylphenoxy)-2,2-dimethylpentanoic acid], the “activity of NF-κB reporter gene” value (NF-κB) is reported as “could significantly inhibit the activity of NF-κB reporter gene”, the “ARE reporter gene activity” value [2] is reported as “could significantly activate the ARE reporter gene activity” and the “PGC1α mRNA expression” value (PGC1α) is reported as “significantly induced PGC1α mRNA expression”. The “PPARγ mRNA expression” value (PPARγ) was “significantly induced PPARγ mRNA expression”, the “NO generation induced by LPS” value [1] was “could inhibit NO generation” and the CPT1α protein level (CPT1α) was “significantly increased CPT1α protein level”. The “phosphorylation level of IRS-1” value (phosphorylated IRS-1) was “significantly increased the phosphorylation level of IRS-1”.

`Cc1cc(OCCCC(C)(C)C(=O)O)c(C)c(O)c1Br` [BJMU-416, 5-(4-bromo-3-hydroxy-2,5-dimethylphenoxy)-2,2-dimethylpentanoic acid] was tested, and the “ARE reporter gene activity” value [2] was “could significantly activate the ARE reporter gene activity” and the “phosphorylation level of IRS-1” value (phosphorylated IRS-1) was “significantly increased the phosphorylation level of IRS-1”.

In the case of `CCc1ccc(CCOc2ccc(CC3SC(=O)NC3=O)cc2)nc1` (centres unmarked) [Pioglitazone, pioglitazone], the “AHDL (high density lipoprotein)” value (db/db mice) is reported as 1.65 ± 0.29 mmol/L, the “ALDL (low density lipoprotein)” value (db/db mice) is reported as 0.38 ± 0.03 mmol/L and the ALT (db/db mice) is reported as 225.43 ± 79.31 U/L. For the same compound, the AST (db/db mice) was 212.79 ± 91.2 U/L, the “CHOL (total cholesterol)” value (db/db mice) was 3.45 ± 0.26 mmol/L and the CK (db/db mice) was 1482.86 ± 707.74 U/L. The CREA (db/db mice) was 12 ± 3.91 µmol/L and the “TGL (triglycerides)” value (db/db mice) was 2.17 ± 0.61 mmol/L.
